The values below come from PubChem BioAssay AID624129 (Sanford-Burnham Center for Chemical Genomics, 2012).

Each structure is given as a SMILES string. Activity calls are given as the source filed them. No rule for the calls is given here.

Common to all, as to test: potency against CXCR6 with APJ panel – cell-based, beta-arrestin, DiscoveRx, uHTS hits, dose response (AID 624129)
Assay [1] addresses Beta-galactosidase (Escherichia coli) (UniProt Q8VNN2). As to conditions: CXCR6 beta-arrestin (DiscoveRx) antagonist cell assay, b-galactosidase.
Assay [2] deals with C-C chemokine receptor type 6 (Homo sapiens) (UniProt P51684). As to conditions: CXCR6 beta-arrestin (DiscoveRx) antagonist cell assay.
Assay [3] deals with Apelin receptor (Homo sapiens) (UniProt P35414). As to conditions: CXCR6 beta-arrestin (DiscoveRx) antagonist cell assay, APJ.
Assay [4] has as its target C-X-C chemokine receptor type 6 (Homo sapiens) (UniProt O00574). As to conditions: CXCR6 beta-arrestin (DiscoveRx) antagonist cell assay; for inhibition: CXCR6, run 1, dose range 2, at 80 µM (top of the series).
Where [5] appears, read: dose range 1, mean IC50 across replicates.
Setting [6] is: CCR6, dose range 1, mean IC50 across replicates.
Setting [7] is: CXCR6, dose range 1, mean IC50 across replicates.

Sequence of Beta-galactosidase (Escherichia coli) (Q8VNN2 whole entry, looked up): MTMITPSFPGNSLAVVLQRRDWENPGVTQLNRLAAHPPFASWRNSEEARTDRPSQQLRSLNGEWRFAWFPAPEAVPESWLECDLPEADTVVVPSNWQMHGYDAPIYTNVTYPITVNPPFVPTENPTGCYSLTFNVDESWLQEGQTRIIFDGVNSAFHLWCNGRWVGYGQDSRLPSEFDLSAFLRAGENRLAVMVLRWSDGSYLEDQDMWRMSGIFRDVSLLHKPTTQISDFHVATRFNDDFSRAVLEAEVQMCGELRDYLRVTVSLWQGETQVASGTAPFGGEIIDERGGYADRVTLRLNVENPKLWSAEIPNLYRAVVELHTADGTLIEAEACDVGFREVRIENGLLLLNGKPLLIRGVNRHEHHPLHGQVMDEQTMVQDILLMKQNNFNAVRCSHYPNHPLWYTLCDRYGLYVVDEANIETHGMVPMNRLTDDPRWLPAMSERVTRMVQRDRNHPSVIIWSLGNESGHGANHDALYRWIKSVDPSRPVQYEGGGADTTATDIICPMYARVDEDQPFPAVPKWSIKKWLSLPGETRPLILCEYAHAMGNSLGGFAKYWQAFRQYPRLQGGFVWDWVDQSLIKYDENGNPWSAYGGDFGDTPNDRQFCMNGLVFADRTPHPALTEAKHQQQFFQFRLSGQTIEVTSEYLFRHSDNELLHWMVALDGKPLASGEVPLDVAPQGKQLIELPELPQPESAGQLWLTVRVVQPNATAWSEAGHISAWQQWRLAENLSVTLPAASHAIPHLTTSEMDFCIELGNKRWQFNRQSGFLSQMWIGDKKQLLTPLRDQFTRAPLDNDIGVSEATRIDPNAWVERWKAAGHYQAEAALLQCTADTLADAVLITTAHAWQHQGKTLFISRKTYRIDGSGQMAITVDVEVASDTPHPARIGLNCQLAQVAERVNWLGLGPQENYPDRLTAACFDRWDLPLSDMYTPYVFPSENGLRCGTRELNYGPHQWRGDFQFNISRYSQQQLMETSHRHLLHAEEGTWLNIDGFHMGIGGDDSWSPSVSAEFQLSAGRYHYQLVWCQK
Sequence of C-X-C chemokine receptor type 6 (Homo sapiens) (O00574 whole entry, looked up): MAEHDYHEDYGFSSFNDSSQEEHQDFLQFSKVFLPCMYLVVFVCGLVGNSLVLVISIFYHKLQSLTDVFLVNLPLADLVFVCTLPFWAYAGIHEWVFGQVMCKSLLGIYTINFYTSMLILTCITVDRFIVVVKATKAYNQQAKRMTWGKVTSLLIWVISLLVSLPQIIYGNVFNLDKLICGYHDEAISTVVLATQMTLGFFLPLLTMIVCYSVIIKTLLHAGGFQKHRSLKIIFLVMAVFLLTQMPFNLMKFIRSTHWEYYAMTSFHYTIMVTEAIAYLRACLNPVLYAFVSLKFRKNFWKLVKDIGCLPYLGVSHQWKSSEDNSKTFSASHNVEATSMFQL

With `CC(Oc1cccc(Cl)c1)C(=O)Nc1nc(-c2ccccn2)cs1` (stereo unspecified), the IC50 (as a rule, the concentration needed to halve the response being measured) in assay [1] (dose range 1) was > 80 µM (inactive); in assay [1] (setting [5]) it was > 80 µM; in assay [2] (CCR6, dose range 1), 6.82 µM; in assay [2] (setting [6]) it was 7.6 µM; in assay [2] (CCR6, run 2, dose range 1), 8.37 µM; in assay [3] (dose range 1) it was 8.02 µM. Moreover, the IC50 was 8.47 µM in assay [3] (setting [5]); 8.75 µM in assay [3] (run 2, dose range 1); 8.64 µM in assay [3] (run 3, dose range 1); 8.97 µM in assay [4] (CXCR6, dose range 1); 7.17 µM in assay [4] (setting [7]); 5.61 µM in assay [4] (CXCR6, run 1, dose range 2). For the same compound, the IC50 was 7.93 µM in assay [4] (CXCR6, run 2, dose range 1) and 6.18 µM in assay [4] (CXCR6, run 2, dose range 2).
Turning to `CC(=O)Nc1ccc(NCC(=O)c2ccccc2)cc1`, the IC50 result is “inactive” in assay [1] (dose range 1) and “inactive” in assay [4] (CXCR6, dose range 1). For the same compound, the IC50 in assay [1] (setting [5]) was 58.9 µM; in assay [2] (CCR6, dose range 1), 28.9 µM; in assay [2] (setting [6]), 26.3 µM; in assay [2] (CCR6, run 2, dose range 1), 23.7 µM; in assay [3] (setting [5]), 26.2 µM; in assay [3] (run 2, dose range 1), 24.9 µM. The IC50 in assay [3] (run 3, dose range 1) came out at 27.5 µM; in assay [4] (setting [7]) it was 23.7 µM; in assay [4] (CXCR6, run 2, dose range 1), 21.9 µM. Further, the inhibition (commonly the relative decrease from the control value, in per cent) in assay [4] was found to be 62%.
Consider `COc1ccc(OC)c2sc(N(CCCN(C)C)C(=O)CCS(=O)(=O)c3ccccc3)nc12`, for which the IC50 in assay [1] (dose range 1) is > 80 µM (inactive); in assay [1] (setting [5]), > 80 µM; in assay [2] (CCR6, dose range 1), 10.4 µM; in assay [2] (setting [6]) it was 11.3 µM; in assay [2] (CCR6, run 2, dose range 1) it was 12.3 µM; in assay [3] (dose range 1), 21.7 µM. Besides, the IC50 in assay [3] (setting [5]) worked out at 19.6 µM; in assay [3] (run 2, dose range 1), 18.2 µM; in assay [3] (run 3, dose range 1) it was 19 µM; in assay [4] (setting [7]), 12.5 µM; in assay [4] (CXCR6, run 2, dose range 1), 10.6 µM. The IC50 entry in assay [4] (CXCR6, dose range 1) is “inactive”. Moreover, the inhibition in assay [4] was found to be 114%.
With `O=C(c1nnsc1S(=O)c1ccc(Cl)cc1)N1CCOCC1` (stereo unspecified), the IC50 in assay [1] (dose range 1) was > 80 µM (inactive); in assay [1] (setting [5]), > 80 µM; in assay [2] (CCR6, dose range 1), 13.2 µM; in assay [2] (setting [6]), 34.3 µM; in assay [2] (CCR6, run 2, dose range 1) it was 55.4 µM; in assay [3] (dose range 1), 19 µM. Besides, the IC50 is 27.6 µM in assay [3] (setting [5]); 24.9 µM in assay [3] (run 2, dose range 1); 38.9 µM in assay [3] (run 3, dose range 1); 18.3 µM in assay [4] (setting [7]); 17.4 µM in assay [4] (CXCR6, run 2, dose range 1). In addition, the IC50 entry in assay [4] (CXCR6, dose range 1) is “inactive”. Besides, in assay [4], the inhibition worked out at 56.2%.
Regarding `COc1cc(/C=C/c2ccc3cccc(O)c3n2)cc(OC)c1OC`, the IC50 was > 80 µM (inactive) in assay [1] (dose range 1); > 80 µM in assay [1] (setting [5]); 3.45 µM in assay [2] (CCR6, dose range 1); 4.03 µM in assay [2] (setting [6]); 4.62 µM in assay [2] (CCR6, run 2, dose range 1); 4.36 µM in assay [3] (dose range 1). Further, the IC50 was 5.15 µM in assay [3] (setting [5]); 4.59 µM in assay [3] (run 2, dose range 1); 6.51 µM in assay [3] (run 3, dose range 1); 3.23 µM in assay [4] (CXCR6, dose range 1); 3.7 µM in assay [4] (setting [7]); 3.35 µM in assay [4] (CXCR6, run 1, dose range 2). Moreover, the IC50 in assay [4] (CXCR6, run 2, dose range 1) was 4.11 µM; in assay [4] (CXCR6, run 2, dose range 2), 4.09 µM.
Take `O=C(/C=C/c1cccc([N+](=O)[O-])c1)c1ccc([N+](=O)[O-])o1`: the IC50 in assay [1] (dose range 1) is > 80 µM (inactive); in assay [1] (setting [5]), > 80 µM; in assay [2] (CCR6, dose range 1), 6.68 µM; in assay [2] (setting [6]), 20.8 µM; in assay [2] (CCR6, run 2, dose range 1), 34.9 µM; in assay [3] (setting [5]), > 80 µM. For the same compound, the IC50 in assay [3] (run 2, dose range 1) is > 80 µM; in assay [3] (run 3, dose range 1), > 80 µM; in assay [4] (setting [7]), 19 µM; in assay [4] (CXCR6, run 1, dose range 2), 7.73 µM; in assay [4] (CXCR6, run 2, dose range 1), > 80 µM; in assay [4] (CXCR6, run 2, dose range 2) it was 7.58 µM. Moreover, the IC50 result in assay [4] (CXCR6, dose range 1) was “inactive”.
For `CC(C)c1ccc(O)c(NC(=S)NC(=O)c2cccnc2)c1`, the IC50 entry is “inactive” in assay [1] (dose range 1) and “inactive” in assay [4] (CXCR6, dose range 1). Besides, the IC50 in assay [1] (setting [5]) is 51.9 µM; in assay [2] (CCR6, dose range 1), 10.6 µM; in assay [2] (setting [6]) it was 10 µM; in assay [2] (CCR6, run 2, dose range 1), 9.43 µM; in assay [3] (dose range 1) it was 8.65 µM; in assay [3] (setting [5]) it was 9.87 µM. In addition, the IC50 came to 10.6 µM in assay [3] (run 2, dose range 1); 10.4 µM in assay [3] (run 3, dose range 1); 14.9 µM in assay [4] (setting [7]); 12.7 µM in assay [4] (CXCR6, run 1, dose range 2); 20.7 µM in assay [4] (CXCR6, run 2, dose range 1); 8.67 µM in assay [4] (CXCR6, run 2, dose range 2).
Consider `Cc1cc(Cl)n2c(nc3cc(F)c(F)cc32)c1C#N`, for which the IC50 was > 80 µM (inactive) in assay [1] (dose range 1); > 80 µM in assay [1] (setting [5]); 7.09 µM in assay [2] (CCR6, dose range 1); 9.8 µM in assay [2] (setting [6]); 12.5 µM in assay [2] (CCR6, run 2, dose range 1); > 80 µM in assay [3] (setting [5]). For the same compound, the IC50 was > 80 µM in assay [3] (run 2, dose range 1); > 80 µM in assay [3] (run 3, dose range 1); 24.8 µM in assay [4] (setting [7]); 6.21 µM in assay [4] (CXCR6, run 1, dose range 2); 53 µM in assay [4] (CXCR6, run 2, dose range 1); 6.06 µM in assay [4] (CXCR6, run 2, dose range 2). Besides, the IC50 entry in assay [4] (CXCR6, dose range 1) was “inactive”.
